Earlier results on two compounds are cited in US7517991B2, “N-sulfonylpiperidine cannabinoid receptor 1 antagonists” (Bristol-Myers Squibb Company, priority 2004, dated 2009).

Like-named read-outs stand apart in the source and are kept apart here.

The conditions of series [1]: chronic administration for two weeks.
For series [2] the following is noted: human subjects, 16 week trial period, Phase IIb.

For the compound `Cc1c(C(=O)NN2CCCCC2)nn(-c2ccc(Cl)cc2Cl)c1-c1ccc(I)cc1` [AM-251], the body weight entry in series [1] is reported as “substantial body weight reduction”.
As to `Cc1c(C(=O)NN2CCCCC2)nn(-c2ccc(Cl)cc2Cl)c1-c1ccc(Cl)cc1` [SR-141716], in series [2], the body weight result was “dose-dependently reduced body weight”.
